Measurements as given in patent US20230072421A1, “TARGETED RADIOPHARMACEUTICALS FOR THE DIAGNOSIS AND TREATMENT OF PROSTATE CANCER” (Bayer AS, priority 2019, published 2023).

Biological target: T1, PSMA-expressing LNCaP cells (Homo sapiens, UniProt Q04609)
T1 construct: PSMA-expressing LNCaP cells; endogenous in cells; host or cells: LNCaP
Assay: Binding competition assay against 3H-PSMA-617 on LNCaP cells
Details: for remaining activity at 0.01 µM / remaining activity at 0.1 µM: LNCaP cells, 10 nM 3H-PSMA-617, 2 h at 37° C., triplicates; for remaining activity at 0.01 µM: competing non-radiolabeled compound 10 nM; for remaining activity at 0.1 µM: competing non-radiolabeled compound 100 nM; for competition against 3H-PSMA-617 on PSMA-expressing LNCaP cells (in words): comparison between examples
Description: Cells were incubated at 37° C. and 5% CO2 over night. […] After addition of the compounds in growth media the cells were swiveled slightly on a shaker mixing for 10 min followed by incubation for 2 h at 37° C., 5% C02. Following the incubation time the supernatant was removed by pipetting and cells were washed twice with ice cold PBS (total of 800 μl). Cells were lysed in 500 μl of 0.3M NaOH (PanReac AppliChem ITW Reagents) by vigorous shaking for 15 min and the cell lysated pipetted into scintillator tubes (S207-[…]® Scintillation Vials 6.5 ml #S207, Simport). In the following the wells were washed with 500 μl PBS and the washing PBS added to the corresponding samples in the sincitallator tubes. To each sample in the scintillator tubes 4 mL of Ultima Gold liquid scintillation cocktail (Sigma-Aldrich #L8286) was added and the samples let stand for at least 30 min. Thereafter radioactivity was counted in a Tri-Carb Liquid Scinzillation Analyzer (Perkin Elmer).

T1 sequence (Q04609 whole entry): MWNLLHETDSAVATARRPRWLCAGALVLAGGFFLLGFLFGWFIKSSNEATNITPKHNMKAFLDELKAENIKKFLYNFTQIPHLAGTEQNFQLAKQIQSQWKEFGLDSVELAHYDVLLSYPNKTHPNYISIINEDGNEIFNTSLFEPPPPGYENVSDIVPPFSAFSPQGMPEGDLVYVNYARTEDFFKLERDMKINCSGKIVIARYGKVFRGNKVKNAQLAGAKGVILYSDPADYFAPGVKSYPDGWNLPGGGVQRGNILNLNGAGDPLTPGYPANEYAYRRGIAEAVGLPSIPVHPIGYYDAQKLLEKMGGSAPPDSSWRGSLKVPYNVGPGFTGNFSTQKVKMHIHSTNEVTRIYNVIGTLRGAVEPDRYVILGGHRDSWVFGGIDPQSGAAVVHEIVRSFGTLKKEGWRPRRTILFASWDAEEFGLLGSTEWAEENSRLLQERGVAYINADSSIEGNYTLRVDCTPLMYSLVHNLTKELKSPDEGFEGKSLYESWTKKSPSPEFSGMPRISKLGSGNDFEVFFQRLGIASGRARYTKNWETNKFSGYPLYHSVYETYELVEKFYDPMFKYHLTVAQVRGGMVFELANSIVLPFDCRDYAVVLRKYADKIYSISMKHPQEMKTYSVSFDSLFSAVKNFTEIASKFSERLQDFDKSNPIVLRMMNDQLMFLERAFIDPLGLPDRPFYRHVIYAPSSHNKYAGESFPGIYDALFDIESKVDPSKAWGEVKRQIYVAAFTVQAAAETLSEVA

SMILES: NCc1ccc(C(=O)N[C@@H](Cc2ccc3ccccc3c2)C(=O)NCCCC[C@H](NC(=O)N[C@@H](CCC(=O)O)C(=O)O)C(=O)O)nc1 [Example 25-A, (3S,10S,14S)-1-[5-(aminomethyl)pyridin-2-yl]-3-[(naphthalen-2-yl)methyl]-1,4,12-trioxo-2,5,11,13-tetraazahexadecane-10,14,16-tricarboxylic acid]
- remaining activity at 0.01 µM: 93%
- remaining activity at 0.1 µM: 21%
- competition against 3H-PSMA-617 on PSMA-expressing LNCaP cells (in words): improved competition in comparison to the cyclohexyl examples 1-A and 1-B

SMILES: NCc1ccc(C(=O)N[C@@H](Cc2ccc3ccccc3c2)C(=O)NCCCC[C@H](NC(=O)N[C@H](CCC(=O)O)C(=O)O)C(=O)O)nc1 [Example 25-A-D, (3S,10S,14R)-1-[5-(aminomethyl)pyridin-2-yl]-3-[(naphthalen-2-yl)methyl]-1,4,12-trioxo-2,5,11,13-tetraazahexadecane-10,14,16-tricarboxylic acid]
- remaining activity at 0.01 µM: 79%
- remaining activity at 0.1 µM: 67%

SMILES: O=C(O)CC[C@H](NC(=O)N[C@@H](CCCCNC(=O)[C@H](Cc1ccc2ccccc2c1)NC(=O)c1ccc(CNC(=O)CN2CCN(CC(=O)O)CCN(CC(=O)O)CCN(CC(=O)O)CC2)cn1)C(=O)O)C(=O)O [Example 25-B, (3S,10S,14S)-3-[(naphthalen-2-yl)methyl]-1,4,12-trioxo-1-[5-({2-[4,7,10-tris(carboxymethyl)-1,4,7,10-tetraazacyclododecan-1-yl]acetamido}methyl)pyridin-2-yl]-2,5,11,13-tetraazahexadecane-10,14,16-tricarboxylic acid]
- remaining activity at 0.01 µM: 54%
- remaining activity at 0.1 µM: 5%
- competition against 3H-PSMA-617 on PSMA-expressing LNCaP cells (in words): improved competition in comparison to the cyclohexyl examples 1-A and 1-B

SMILES: NCc1ccc(C(=O)N[C@@H](Cc2ccc3ccccc3c2)C(=O)NCCCC[C@H](NC(=O)N[C@@H](CCC(=O)O)C(=O)O)C(=O)O)cn1 [Example 26-A, (3S,10S,14S)-1-[6-(aminomethyl)pyridin-3-yl]-3-[(naphthalen-2-yl)methyl]-1,4,12-trioxo-2,5,11,13-tetraazahexadecane-10,14,16-tricarboxylic acid]
- remaining activity at 0.01 µM: 33%
- remaining activity at 0.1 µM: 6%
- competition against 3H-PSMA-617 on PSMA-expressing LNCaP cells (in words): improved competition in comparison to the cyclohexyl examples 1-A and 1-B

SMILES: O=C(O)CC[C@H](NC(=O)N[C@@H](CCCCNC(=O)[C@H](Cc1ccc2ccccc2c1)NC(=O)c1ccc(CNC(=O)CN2CCN(CC(=O)O)CCN(CC(=O)O)CCN(CC(=O)O)CC2)nc1)C(=O)O)C(=O)O [Example 26-B, (3S,10S,14S)-3-[(naphthalen-2-yl)methyl]-1,4,12-trioxo-1-[6-({2-[4,7,10-tris(carboxymethyl)-1,4,7,10-tetraazacyclododecan-1-yl]acetamido}methyl)pyridin-3-yl]-2,5,11,13-tetraazahexadecane-10,14,16-tricarboxylic acid]
- remaining activity at 0.01 µM: 53%
- remaining activity at 0.1 µM: 6%
- competition against 3H-PSMA-617 on PSMA-expressing LNCaP cells (in words): improved competition in comparison to the cyclohexyl examples 1-A and 1-B

SMILES: NCc1cccc(C(=O)N[C@@H](Cc2ccc3ccccc3c2)C(=O)NCCCC[C@H](NC(=O)N[C@@H](CCC(=O)O)C(=O)O)C(=O)O)c1 [Example 27-A, (3S,10S,14S)-1-[3-(aminomethyl)phenyl]-3-[(naphthalen-2-yl)methyl]-1,4,12-trioxo-2,5,11,13-tetraazahexadecane-10,14,16-tricarboxylic acid]
- remaining activity at 0.01 µM: 27%
- remaining activity at 0.1 µM: 7%

SMILES: O=C(O)CC[C@H](NC(=O)N[C@@H](CCCCNC(=O)[C@H](Cc1ccc2ccccc2c1)NC(=O)c1cccc(CNC(=O)CN2CCN(CC(=O)O)CCN(CC(=O)O)CCN(CC(=O)O)CC2)c1)C(=O)O)C(=O)O [Example 27-B, (3S,10S,14S)-3-[(naphthalen-2-yl)methyl]-1,4,12-trioxo-1-[3-({2-[4,7,10-tris(carboxymethyl)-1,4,7,10-tetraazacyclododecan-1-yl]acetamido}methyl)phenyl]-2,5,11,13-tetraazahexadecane-10,14,16-tricarboxylic acid]
- remaining activity at 0.01 µM: 54%
- remaining activity at 0.1 µM: 6%

SMILES: Nc1ccc(-c2ccn(CC(=O)N[C@@H](Cc3ccc4ccccc4c3)C(=O)NCCCC[C@H](NC(=O)N[C@@H](CCC(=O)O)C(=O)O)C(=O)O)n2)cc1 [Example 28-A, (4S,11S,15S)-1-[3-(4-aminophenyl)-1H-pyrazol-1-yl]-4-[(naphthalen-2-yl)methyl]-2,5,13-trioxo-3,6,12,14-tetraazaheptadecane-11,15,17-tricarboxylic acid]
- remaining activity at 0.01 µM: 107%
- remaining activity at 0.1 µM: 60%

SMILES: O=C(O)CC[C@H](NC(=O)N[C@@H](CCCCNC(=O)[C@H](Cc1ccc2ccccc2c1)NC(=O)Cn1ccc(-c2ccc(NC(=O)CN3CCN(CC(=O)O)CCN(CC(=O)O)CCN(CC(=O)O)CC3)cc2)n1)C(=O)O)C(=O)O [Example 28-B, (4S,11S,15S)-4-[(naphthalen-2-yl)methyl]-2,5,13-trioxo-1-[3-(4-{2-[4,7,10-tris(carboxymethyl)-1,4,7,10-tetraazacyclododecan-1-yl]acetamido}phenyl)-1H-pyrazol-1-yl]-3,6,12,14-tetraazaheptadecane-11,15,17-tricarboxylic acid]
- remaining activity at 0.01 µM: 33%
- remaining activity at 0.1 µM: 90%

SMILES: NC[C@H]1CC[C@H](CNC(=O)N[C@@H](Cc2ccc3ccccc3c2)C(=O)NCCCC[C@H](NC(=O)N[C@@H](CCC(=O)O)C(=O)O)C(=O)O)CC1 [Example 29-A, (5S,12S,16S)-1-[(1r,4S)-4-(aminomethyl)cyclohexyl]-5-[(naphthalen-2-yl)methyl]-3,6,14-trioxo-2,4,7,13,15-pentaazaoctadecane-12,16,18-tricarboxylic acid]
- remaining activity at 0.01 µM: 113%
- remaining activity at 0.1 µM: 92%

SMILES: O=C(O)CC[C@H](NC(=O)N[C@@H](CCCCNC(=O)[C@H](Cc1ccc2ccccc2c1)NC(=O)NCC1CCNCC1)C(=O)O)C(=O)O [Example 30-A, (5S,12S,16S)-5-[(naphthalen-2-yl)methyl]-3,6,14-trioxo-1-(piperidin-4-yl)-2,4,7,13,15-pentaazaoctadecane-12,16,18-tricarboxylic acid]
- remaining activity at 0.01 µM: 136%
- remaining activity at 0.1 µM: 96%

SMILES: NC[C@H]1CC[C@H](C(=O)N[C@@H](Cc2ccc(Br)cn2)C(=O)NCCCC[C@H](NC(=O)N[C@@H](CCC(=O)O)C(=O)O)C(=O)O)CC1 [Example 31-A, N^6—{N-[(1r,4S)-4-(aminomethyl)cyclohexane-1-carbonyl]-3-(5-bromopyridin-2-yl)-L-alanyl}-N^2-{[(1S)-1,3-dicarboxypropyl]carbamoyl}-L-lysine]
- remaining activity at 0.01 µM: 61%
- remaining activity at 0.1 µM: 78%

SMILES: NCc1ccc(C(=O)N[C@@H](Cc2cnc3ccccc3c2)C(=O)NCCCC[C@H](NC(=O)N[C@@H](CCC(=O)O)C(=O)O)C(=O)O)nc1 [Example 32-A, N^6—{N-[5-(aminomethyl)pyridine-2-carbonyl]-3-(quinolin-3-yl)-L-alanyl}-N^2-{[(1S)-1,3-dicarboxypropyl]carbamoyl}-L-lysine]
- remaining activity at 0.01 µM: 84%
- remaining activity at 0.1 µM: 46%

SMILES: O=C(O)CC[C@H](NC(=O)N[C@@H](CCCCNC(=O)[C@@H](Cc1cnc2ccccc2c1)NC(=O)c1ccc(CNC(=O)CN2CCN(CC(=O)O)CCN(CC(=O)O)CCN(CC(=O)O)CC2)cn1)C(=O)O)C(=O)O [Example 32-B, N^6-{3-(quinolin-3-yl)-N-[5-({2-[4,7,10-tris(carboxymethyl)-1,4,7,10-tetraazacyclododecan-1-yl]acetamido}methyl)pyridine-2-carbonyl]-D-alanyl}-N^2-{[(1S)-1,3-dicarboxypropyl]carbamoyl}-L-lysine]
- remaining activity at 0.01 µM: 88%
- remaining activity at 0.1 µM: 35%

SMILES: COc1c(C[C@@H](NC(=O)[C@H]2CC[C@H](CN)CC2)C(=O)NCCCC[C@H](NC(=O)N[C@@H](CCC(=O)O)C(=O)O)C(=O)O)ccc2ccccc12 [Example 33-A, (3R,10S,14S)-1-[(1r,4S)-4-(aminomethyl)cyclohexyl]-3-[(1-methoxynaphthalen-2-yl)methyl]-1,4,12-trioxo-2,5,11,13-tetraazahexadecane-10,14,16-tricarboxylic acid]
- remaining activity at 0.01 µM: 66%
- remaining activity at 0.1 µM: 72%

SMILES: COc1c(C[C@@H](NC(=O)[C@H]2CC[C@H](CNC(=O)CN3CCN(CC(=O)O)CCN(CC(=O)O)CCN(CC(=O)O)CC3)CC2)C(=O)NCCCC[C@H](NC(=O)N[C@@H](CCC(=O)O)C(=O)O)C(=O)O)ccc2ccccc12 [Example 33-B, (3R,10S,14S)-3-[(1-methoxynaphthalen-2-yl)methyl]-1,4,12-trioxo-1-[(1r,4S)-4-({2-[4,7,10-tris(carboxymethyl)-1,4,7,10-tetraazacyclododecan-1-yl]acetamido}methyl)cyclohexyl]-2,5,11,13-tetraazahexadecane-10,14,16-tricarboxylic acid]
- remaining activity at 0.01 µM: 114%
- remaining activity at 0.1 µM: 40%

SMILES: COc1c(C[C@@H](NC(=O)c2ccc(CNC(=O)CN3CCN(CC(=O)O)CCN(CC(=O)O)CCN(CC(=O)O)CC3)cn2)C(=O)NCCCC[C@H](NC(=O)N[C@@H](CCC(=O)O)C(=O)O)C(=O)O)ccc2ccccc12 [Example 33a-B, (3R,10S,14S)-3-[(1-methoxynaphthalen-2-yl)methyl]-1,4,12-trioxo-1-[5-({2-[4,7,10-tris(carboxymethyl)-1,4,7,10-tetraazacyclododecan-1-yl]acetamido}methyl)pyridin-2-yl]-2,5,11,13-tetraazahexadecane-10,14,16-tricarboxylic acid]
- remaining activity at 0.01 µM: 74%
- remaining activity at 0.1 µM: 42%
